Measurements as given in US12428623B2, “Generation of midbrain-specific organoids from human pluripotent stem cells” (AGENCY FOR SCIENCE, TECHNOLOGY AND RESEARCH, priority 2016, dated 2025).

Assays:
Assay type in all cases: cell-based
[1] = tested on: neuron inside a human midbrain-like organoid; assay: Whole cell patch clamp recording of spontaneous postsynaptic currents in hMLO neurons; settings: for spontaneous excitatory postsynaptic currents (sEPSCs): neuron inside hMLO at day 80, CNQX and AP5 applied together (FIG. 4F, recording 2)
Experimental: Whole cell patch clamp recording techniques were used to measure the intrinsic properties of neurons within human midbrain-like organoids. Each human midbrain-like organoid was placed in a chamber and submerged beneath continuously perfused artificial CSF (aCSF) saturated with 95% O2 and 5% CO2 at 30 to 32° C. Patch pipettes (2 to 4 MΩ) were filled with an intracellular solution containing (in mM): Potassium methanesulfonate 135, KCl 10, HEPES 10, EGTA 1 Na2ATP 2; 290 mOsm; pH was adjusted to between 7.2 to 7.4 with KOH. Whole cell recordings were performed using IR-DIC visualization techniques with an Olympus BX51WI upright microscope, using a ×60 water immersion lens. Signals were recorded using an MultiClamp 700B amplifier, filtered at 3 kHz using a Bessel filter, and digitized at 10 kHz with a Digidata 1322A analog-to-digital (A/D) board (Molecular Devices, Sunnyvale, CA). To measure Na^+ currents and K^+ currents, voltage steps (500 msec duration) were applied from a holding potential of −70 mV to a range of test potentials between −50 and +90 mV (10 mV increments). For excitability test, a series of current pulses (500 msec) of increasing amplitude (5 pA steps) were injected to make the current-firing frequency relationship. Spontaneous excitatory postsynaptic currents (sEPSCs) were collected at a holding potential of −70 mV. Evoked excitatory postsynaptic currents (eEPSCs) was induced by tungsten wire electrodes placed about 300 μm away from the recording neuron within the hMLO.

[2] = tested on: human midbrain-like organoids (hMLOs); assay: Neuromelanin-like granule formation in human midbrain-like organoids (bright field, Fontana-Masson staining); settings: for formation of neuromelanin-like granules: 50 μM treatment, bright field images and Fontana-Masson stained sections (FIG. 3G)
Experimental: For generation of human midbrain-like organoids, human embryonic stem cell lines were used at less than 40 passages. The human embryonic stem cells were dissociated from intact colonies to single cells with TrypLE Express (Life Technologies), and 10,000 cells were plated in each well of low-cell-adhesion 96-well culture plate with V-bottomed conical wells (Sumitomo Bakelite) to form uniform EBs in neuronal induction medium containing DMEM/F12:Neurobasal (1:1), 1:100 N2 supplement (Invitrogen), 1:50 B27 without vitamin A (Invitrogen), 1% GlutaMAX (Invitrogen), 1% minimum essential media-nonessential amino acid (Invitrogen), and 0.1% β-mercaptoethanol (Invitrogen) supplemented with 1 μg/ml Heparin (Sigma-Aldrich), 10 μM SB431542 (Stemgent), 200 ng/ml Noggin (Prospec), 0.8 μM CHIR99021 (Reagents Direct), and 10 μM ROCK inhibitor Y27632 (Calbiochem). ROCK inhibitor was added for the first 48 hours and neuronal induction medium was changed on day 2. On day 4, human midbrain-like organoids were cultured with addition of 100 ng/ml SHH-C25II (R&D Systems) and 100 ng/ml FGF8 (R&D Systems) for midbrain patterning. After 3 days, the human midbrain-like organoids started to extrude neuroectodermal buds, media were completely removed and immediately 30 μl of growth factor reduced matrigel was added in each well by pipetting using pre-chilled 200 μl pipette tip. The matrigel embedded midbrain-like organoid was placed into 37° C. incubator for 30 minutes to allow the matrigel to solidify, and was grown in tissue growth induction medium containing Neurobasal, 1:100 N2 supplement (Invitrogen), 1:50 B27 without vitamin A (Invitrogen), 1% GlutaMAX (Invitrogen), 1% minimum essential media-nonessential amino acid (Invitrogen), and 0.1% β-mercaptoethanol (Invitrogen) supplemented with 2.5 μg/ml Insulin (Sigma-Aldrich), 200 ng/ml Laminin (Sigma-Aldrich), 100 ng/ml SHH-C25II (R&D Systems), and 100 ng/ml FGF8 (R&D Systems) for 24 h. […]

[3] = tested on: human cerebral organoids (hCOs); assay: Neuromelanin-like granule formation in human cerebral organoids; settings: 50 μM for 10 days; human cerebral organoids (FIG. 7G)
Experimental: Human midbrain-like organoids were fixed in 4% paraformaldehyde (PFA) overnight, washed in PBS, embedded in paraffin block, and subsequently sectioned at 4 μm thickness. Next, hMLOsections were deparaffinized, hydrated with distilled water, and stained by Fontana-Masson staining kit (Abcam) according to manufacturer's protocol ([…] et al., 2011). Briefly, the sections were placed in ammoniacal silver solution and incubated in a 58 to 60° C. water bath for 30 to 60 minutes until the tissue sections had become yellowish/brown in colour. The tissue sections were washed with distilled water and incubated in gold chloride solution (0.2%) for 30 seconds. Next, the sections were incubated in gold chloride solution (0.2%) for 30 seconds and subsequently incubated with sodium thiosulfate solution (5%) for 2 minutes. Finally, the sections were incubated in nuclear fast red solution for 5 minutes for staining and mounting. Images were taken on an LSM710 confocal microscope or an Observer Z. 1 inverted microscope (Zeiss).

picrotoxin
spontaneous inhibitory postsynaptic currents (sIPSCs) ([1]; neuron inside hMLO at day 80 (FIG. 4F, recording 3)): blocked

N#Cc1cc2[nH]c(=O)c(=O)[nH]c2cc1[N+](=O)[O-] [CNQX]
spontaneous excitatory postsynaptic currents (sEPSCs) [1]: blocked

N[C@@H](Cc1ccc(O)c(O)c1)C(=O)O [L-DOPA, L-3,4-dihydroxyphenylalanine]
formation of neuromelanin-like granules [2]: accelerated
distribution of neuromelanin-like granules ([2]; L-DOPA 50 μM, hMLO at day 35, untreated hMLO at the same day showed none): robust distribution of neuromelanin-like granules was observed
neuromelanin (NM)-like granules or coloured deposits [3]: did not show any neuromelanin (NM)-like granules

NC(CCCP(=O)(O)O)C(=O)O (stereo not shown) [AP5]
spontaneous excitatory postsynaptic currents (sEPSCs) [1]: blocked

NCCc1ccc(O)c(O)c1 [dopamine, 3,4-dihydroxyphenethylamine]
formation of neuromelanin-like granules [2]: accelerated
